ChEMBL document CHEMBL1143416, “In vitro susceptibility to posaconazole of 1,903 yeast isolates recovered in France from 2003 to 2006 and tested by the method of the European committee on antimicrobial susceptibility testing” (2007)
≈ marks a conversion by molar mass, not a printed value.

Tests used:
Type in all cases: functional
Trichosporon = assay: Antimicrobial activity against Trichosporon isolate
Debaryomyces hansenii = assay: Antimicrobial activity against Candida famata isolate
Magnusiomyces capitatus = assay: Antimicrobial activity against Geotrichum capitatum isolate
Saccharomyces cerevisiae = assay: Antimicrobial activity against Saccharomyces cerevisiae isolate
[Candida] haemuloni = Antimicrobial activity against Candida haemulonii isolate; conditions: Candidozyma haemuli
[Candida] palmioleophila = Antimicrobial activity against Candida palmioleophila isolate; conditions: Suzukiozyma palmioleophila
Apiotrichum loubieri = assay: Antimicrobial activity against Trichosporon loubieri isolate
Kodamaea ohmeri = assay: Antimicrobial activity against Pichia ohmeri isolate
Wickerhamomyces anomalus = assay: Antimicrobial activity against Candida pelliculosa isolate; conditions: Hansenula anomala
[1] = system: Cutaneotrichosporon mucoides; assay: Antimicrobial activity against Trichosporon mucoides isolate
Trichosporon inkin = assay: Antimicrobial activity against Trichosporon inkin isolate
Yarrowia lipolytica = assay: Antimicrobial activity against Candida lipolytica isolate
Rhodotorula mucilaginosa = assay: Antimicrobial activity against Rhodotorula mucilaginosa isolate
Trichosporon asahii = assay: Antimicrobial activity against Trichosporon asahii isolate
Diutina rugosa = assay: Antimicrobial activity against Candida rugosa isolate
Meyerozyma caribbica = assay: Antimicrobial activity against Candida fermentati isolate
Candida africana = assay: Antimicrobial activity against Candida africana isolate
[Candida] inconspicua = Antimicrobial activity against Candida inconspicua isolate; conditions: Pichia inconspicua
Cyberlindnera jadinii = assay: Antimicrobial activity against Candida utilis isolate; conditions: Williopsis jadinii
Candida tropicalis [2] = assay: Antimicrobial activity against Candida tropicalis isolate from superficial infection
Pichia kudriavzevii [3] = assay: Antimicrobial activity against Candida krusei isolate from superficial infection
Cryptococcus neoformans [4] = assay: Antimicrobial activity against Cryptococcus neoformans isolate
Clavispora lusitaniae [5] = assay: Antimicrobial activity against Candida lusitaniae isolate from superficial infection
Kluyveromyces marxianus [6] = assay: Antimicrobial activity against Candida kefyr blood isolate
[7] = system: Meyerozyma guilliermondii; assay: Antimicrobial activity against Candida guilliermondii blood isolate
Cryptococcus neoformans [8] = assay: Antimicrobial activity against Cryptococcus neoformans isolate from superficial infection
[9] = system: Meyerozyma guilliermondii; assay: Antimicrobial activity against Candida guilliermondii isolate from superficial infection
Pichia kudriavzevii [10] = assay: Antimicrobial activity against Candida krusei blood isolate
Candida parapsilosis [11] = assay: Antimicrobial activity against Candida parapsilosis isolate from superficial infection; conditions: Lodderomyces parapsilosis
Candida parapsilosis [12] = assay: Antimicrobial activity against Candida parapsilosis isolate; conditions: Lodderomyces parapsilosis
Clavispora lusitaniae [13] = assay: Antimicrobial activity against Candida lusitaniae isolate
Candida albicans [14] = assay: Antimicrobial activity against Candida albicans blood isolate
Clavispora lusitaniae [15] = assay: Antimicrobial activity against Candida lusitaniae blood isolate
Candida tropicalis [16] = assay: Antimicrobial activity against Candida tropicalis blood isolate
Candida dubliniensis [17] = assay: Antimicrobial activity against Candida dubliniensis isolate
Candida tropicalis [18] = assay: Antimicrobial activity against Candida tropicalis isolate
Cryptococcus neoformans [19] = assay: Antimicrobial activity against Cryptococcus neoformans blood isolate
Nakaseomyces glabratus [20] = assay: Antimicrobial activity against Candida glabrata isolate
Candida albicans [21] = assay: Antimicrobial activity against Candida albicans isolate from superficial infection
Candida albicans [22] = assay: Antimicrobial activity against Candida albicans isolate
Nakaseomyces glabratus [23] = assay: Antimicrobial activity against Candida glabrata isolate from superficial infection
Candida parapsilosis [24] = assay: Antimicrobial activity against Candida parapsilosis blood isolate; conditions: Lodderomyces parapsilosis
Nakaseomyces glabratus [25] = assay: Antimicrobial activity against Candida glabrata blood isolate
Candida dubliniensis [26] = assay: Antimicrobial activity against Candida dubliniensis isolate from superficial infection
Candida dubliniensis [27] = assay: Antimicrobial activity against Candida dubliniensis blood isolate
[28] = system: Meyerozyma guilliermondii; assay: Antimicrobial activity against Candida guilliermondii isolate
Kluyveromyces marxianus [29] = assay: Antimicrobial activity against Candida kefyr isolate
Pichia kudriavzevii [30] = assay: Antimicrobial activity against Candida krusei isolate

`OC(Cn1cncn1)(Cn1cncn1)c1ccc(F)cc1F` [FLUCONAZOLE] was tested, and the MIC50 (Trichosporon) was 2 µg/mL (≈ 6.53 µM), the MIC50 (Debaryomyces hansenii) was 0.125 µg/mL (≈ 0.408 µM) and the MIC50 (Magnusiomyces capitatus) was 4 µg/mL (≈ 13.1 µM). For the same molecule, the MIC50 (Saccharomyces cerevisiae) was 0.25 µg/mL (≈ 0.816 µM), the MIC50 ([Candida] haemuloni) was 32 µg/mL (≈ 104 µM) and the MIC90 ([Candida] haemuloni) was ≥ 64 µg/mL. The MIC50 ([Candida] palmioleophila) was 8 µg/mL (≈ 26.1 µM), the MIC50 (Apiotrichum loubieri) was 2 µg/mL (≈ 6.53 µM) and the MIC50 (Kodamaea ohmeri) was 8 µg/mL (≈ 26.1 µM). The MIC50 (Wickerhamomyces anomalus) was 2 µg/mL (≈ 6.53 µM), the MIC50 [1] was 2 µg/mL (≈ 6.53 µM) and the MIC50 (Trichosporon inkin) was 0.5 µg/mL (≈ 1.63 µM). For the same molecule, the MIC50 (Yarrowia lipolytica) was 2 µg/mL (≈ 6.53 µM), the MIC50 (Rhodotorula mucilaginosa) was ≥ 64 µg/mL and the MIC50 (Trichosporon asahii) was 2 µg/mL (≈ 6.53 µM). The MIC50 (Diutina rugosa) was 1 µg/mL (≈ 3.27 µM), the MIC50 (Meyerozyma caribbica) was 8 µg/mL (≈ 26.1 µM) and the MIC90 (Meyerozyma caribbica) was ≥ 64 µg/mL. For the same molecule, the MIC50 (Candida africana) was 0.25 µg/mL (≈ 0.816 µM), the MIC50 ([Candida] inconspicua) was 16 µg/mL (≈ 52.2 µM) and the MIC50 (Cyberlindnera jadinii) was 1 µg/mL (≈ 3.27 µM).

`CC[C@@H]([C@H](C)O)n1ncn(-c2ccc(N3CCN(c4ccc(OC[C@@H]5CO[C@@](Cn6cncn6)(c6ccc(F)cc6F)C5)cc4)CC3)cc2)c1=O` [POSACONAZOLE] gave an MIC50 (Candida tropicalis [2]) of 0.125 µg/mL (≈ 0.178 µM), an MIC90 (Candida tropicalis [2]) of 4 µg/mL (≈ 5.71 µM) and an MIC50 (Pichia kudriavzevii [3]) of 0.25 µg/mL (≈ 0.357 µM). It also gave an MIC90 (Pichia kudriavzevii [3]) of 0.5 µg/mL (≈ 0.713 µM), an MIC50 (Cryptococcus neoformans [4]) of 0.125 µg/mL (≈ 0.178 µM) and an MIC90 (Cryptococcus neoformans [4]) of 0.5 µg/mL (≈ 0.713 µM). The MIC (Clavispora lusitaniae [5]) was 0.03 µg/mL (≈ 0.0428 µM), the MIC50 (Kluyveromyces marxianus [6]) was 0.125 µg/mL (≈ 0.178 µM) and the MIC90 (Kluyveromyces marxianus [6]) was 0.5 µg/mL (≈ 0.713 µM). The MIC50 [7] was 0.25 µg/mL (≈ 0.357 µM), the MIC90 [7] was 1 µg/mL (≈ 1.43 µM) and the MIC50 (Trichosporon) was 0.06 µg/mL (≈ 0.0856 µM). For the same molecule, the MIC50 (Debaryomyces hansenii) was 0.125 µg/mL (≈ 0.178 µM), the MIC50 (Magnusiomyces capitatus) was 0.5 µg/mL (≈ 0.713 µM) and the MIC50 (Cryptococcus neoformans [8]) was 0.125 µg/mL (≈ 0.178 µM). For the same molecule, the MIC90 (Cryptococcus neoformans [8]) was 0.5 µg/mL (≈ 0.713 µM), the MIC50 (Saccharomyces cerevisiae) was 0.03 µg/mL (≈ 0.0428 µM) and the MIC50 [9] was 0.5 µg/mL (≈ 0.713 µM). For the same molecule, the MIC90 [9] was 0.5 µg/mL (≈ 0.713 µM), the MIC50 (Pichia kudriavzevii [10]) was 0.25 µg/mL (≈ 0.357 µM) and the MIC90 (Pichia kudriavzevii [10]) was 0.5 µg/mL (≈ 0.713 µM). For the same molecule, the MIC50 ([Candida] haemuloni) was ≥ 8 µg/mL, the MIC90 ([Candida] haemuloni) was ≥ 8 µg/mL and the MIC50 ([Candida] palmioleophila) was 0.125 µg/mL (≈ 0.178 µM). The MIC50 (Candida parapsilosis [11]) was 0.125 µg/mL (≈ 0.178 µM), the MIC90 (Candida parapsilosis [11]) was 0.25 µg/mL (≈ 0.357 µM) and the MIC50 (Candida parapsilosis [12]) was 0.125 µg/mL (≈ 0.178 µM). For the same molecule, the MIC90 (Candida parapsilosis [12]) was 0.25 µg/mL (≈ 0.357 µM), the MIC50 (Apiotrichum loubieri) was 0.06 µg/mL (≈ 0.0856 µM) and the MIC50 (Clavispora lusitaniae [13]) was 0.06 µg/mL (≈ 0.0856 µM). It also gave an MIC90 (Clavispora lusitaniae [13]) of 0.25 µg/mL (≈ 0.357 µM), an MIC50 (Candida albicans [14]) of 0.03 µg/mL (≈ 0.0428 µM) and an MIC90 (Candida albicans [14]) of 0.125 µg/mL (≈ 0.178 µM). For the same molecule, the MIC50 (Kodamaea ohmeri) was 0.06 µg/mL (≈ 0.0856 µM), the MIC50 (Clavispora lusitaniae [15]) was 0.06 µg/mL (≈ 0.0856 µM) and the MIC90 (Clavispora lusitaniae [15]) was 0.25 µg/mL (≈ 0.357 µM). For the same molecule, the MIC50 (Candida tropicalis [16]) was 0.125 µg/mL (≈ 0.178 µM), the MIC90 (Candida tropicalis [16]) was 0.5 µg/mL (≈ 0.713 µM) and the MIC50 (Candida dubliniensis [17]) was 0.06 µg/mL (≈ 0.0856 µM). For the same molecule, the MIC90 (Candida dubliniensis [17]) was 0.125 µg/mL (≈ 0.178 µM), the MIC50 (Wickerhamomyces anomalus) was 0.06 µg/mL (≈ 0.0856 µM) and the MIC50 [1] was 0.06 µg/mL (≈ 0.0856 µM). For the same molecule, the MIC50 (Candida tropicalis [18]) was 0.125 µg/mL (≈ 0.178 µM), the MIC90 (Candida tropicalis [18]) was 0.25 µg/mL (≈ 0.357 µM) and the MIC50 (Cryptococcus neoformans [19]) was 0.125 µg/mL (≈ 0.178 µM). The MIC90 (Cryptococcus neoformans [19]) was 0.5 µg/mL (≈ 0.713 µM), the MIC50 (Nakaseomyces glabratus [20]) was 1 µg/mL (≈ 1.43 µM) and the MIC90 (Nakaseomyces glabratus [20]) was ≥ 8 µg/mL. It also gave an MIC50 (Candida albicans [21]) of 0.06 µg/mL (≈ 0.0856 µM), an MIC90 (Candida albicans [21]) of 0.25 µg/mL (≈ 0.357 µM) and an MIC50 (Candida albicans [22]) of 0.06 µg/mL (≈ 0.0856 µM). It also gave an MIC90 (Candida albicans [22]) of 0.125 µg/mL (≈ 0.178 µM), an MIC50 (Trichosporon inkin) of 0.06 µg/mL (≈ 0.0856 µM) and an MIC50 (Yarrowia lipolytica) of 0.125 µg/mL (≈ 0.178 µM). It also gave an MIC50 (Rhodotorula mucilaginosa) of 1 µg/mL (≈ 1.43 µM), an MIC50 (Trichosporon asahii) of 0.25 µg/mL (≈ 0.357 µM) and an MIC50 (Nakaseomyces glabratus [23]) of 1 µg/mL (≈ 1.43 µM). For the same molecule, the MIC90 (Nakaseomyces glabratus [23]) was ≥ 8 µg/mL, the MIC50 (Diutina rugosa) was 0.06 µg/mL (≈ 0.0856 µM) and the MIC50 (Meyerozyma caribbica) was 0.25 µg/mL (≈ 0.357 µM). For the same molecule, the MIC90 (Meyerozyma caribbica) was 1 µg/mL (≈ 1.43 µM), the MIC50 (Candida africana) was ≤ 0.015 µg/mL and the MIC50 (Candida parapsilosis [24]) was 0.125 µg/mL (≈ 0.178 µM). For the same molecule, the MIC90 (Candida parapsilosis [24]) was 0.25 µg/mL (≈ 0.357 µM), the MIC50 (Nakaseomyces glabratus [25]) was 1 µg/mL (≈ 1.43 µM) and the MIC90 (Nakaseomyces glabratus [25]) was ≥ 8 µg/mL. For the same molecule, the MIC50 ([Candida] inconspicua) was 0.125 µg/mL (≈ 0.178 µM), the MIC (Candida dubliniensis [26]) was ≤ 0.015 µg/mL and the MIC50 (Candida dubliniensis [27]) was 0.06 µg/mL (≈ 0.0856 µM). It also gave an MIC90 (Candida dubliniensis [27]) of 0.125 µg/mL (≈ 0.178 µM), an MIC50 [28] of 0.25 µg/mL (≈ 0.357 µM) and an MIC90 [28] of 0.5 µg/mL (≈ 0.713 µM). The MIC50 (Kluyveromyces marxianus [29]) was 0.125 µg/mL (≈ 0.178 µM), the MIC90 (Kluyveromyces marxianus [29]) was 0.25 µg/mL (≈ 0.357 µM) and the MIC50 (Cyberlindnera jadinii) was 0.125 µg/mL (≈ 0.178 µM). For the same molecule, the MIC50 (Pichia kudriavzevii [30]) was 0.25 µg/mL (≈ 0.357 µM) and the MIC90 (Pichia kudriavzevii [30]) was 0.5 µg/mL (≈ 0.713 µM).

In the case of `C[C@@H](c1ncncc1F)[C@](O)(Cn1cncn1)c1ccc(F)cc1F` [VORICONAZOLE], the MIC50 (Trichosporon) is reported as 0.03 µg/mL (≈ 0.0859 µM), the MIC50 (Debaryomyces hansenii) is reported as ≤ 0.015 µg/mL and the MIC50 (Magnusiomyces capitatus) is reported as ≤ 0.015 µg/mL. The MIC50 (Saccharomyces cerevisiae) was ≤ 0.015 µg/mL, the MIC50 ([Candida] haemuloni) was ≥ 8 µg/mL and the MIC90 ([Candida] haemuloni) was ≥ 8 µg/mL. It also gave an MIC50 ([Candida] palmioleophila) of 0.06 µg/mL (≈ 0.172 µM), an MIC50 (Apiotrichum loubieri) of 0.03 µg/mL (≈ 0.0859 µM) and an MIC50 (Kodamaea ohmeri) of 0.03 µg/mL (≈ 0.0859 µM). The MIC50 (Wickerhamomyces anomalus) was 0.03 µg/mL (≈ 0.0859 µM), the MIC50 [1] was 0.03 µg/mL (≈ 0.0859 µM) and the MIC50 (Trichosporon inkin) was ≤ 0.015 µg/mL. For the same molecule, the MIC50 (Yarrowia lipolytica) was ≤ 0.015 µg/mL, the MIC50 (Rhodotorula mucilaginosa) was 2 µg/mL (≈ 5.73 µM) and the MIC50 (Trichosporon asahii) was 0.03 µg/mL (≈ 0.0859 µM). For the same molecule, the MIC50 (Diutina rugosa) was ≤ 0.015 µg/mL, the MIC50 (Meyerozyma caribbica) was 0.125 µg/mL (≈ 0.358 µM) and the MIC90 (Meyerozyma caribbica) was 1 µg/mL (≈ 2.86 µM). The MIC50 (Candida africana) was ≤ 0.015 µg/mL, the MIC50 ([Candida] inconspicua) was 0.06 µg/mL (≈ 0.172 µM) and the MIC50 (Cyberlindnera jadinii) was 0.03 µg/mL (≈ 0.0859 µM).
